{
  "source": "patent US20160106774A1",
  "about": "“LIQUID PHARMACEUTICAL COMPOSITION CONTAINING PIROXICAM AND HYALURONIC ACID FOR THE TREATMENT OF OSTEOARTHRITIS” (DONG-A ST CO., LTD, priority 2013, published 2016)",
  "origin": "cited, not measured here",
  "data": [
    {"system": "carrageenan-induced animal podedema model", "conditions": "coadministration of NSAID with sodium hyaluronate; piroxicam 4 mg/kg and sodium hyaluronate 4 mg/kg; foot pad", "values": [
      {"molecule": "O=C(O)Cc1ccccc1Nc1c(Cl)cccc1Cl", "note": "[diclofenac]", "anti-inflammatory effect of coadministration with sodium hyaluronate": "additive or synergistic effects"},
      {"molecule": "CC(C)Cc1ccc(C(C)C(=O)O)cc1", "note": "(stereo not shown) [ibuprofen]", "anti-inflammatory effect of coadministration with sodium hyaluronate": "additive or synergistic effects"},
      {"molecule": "COc1ccc2c(c1)c(CC(=O)O)c(C)n2C(=O)c1ccc(Cl)cc1", "note": "[indomethacin]", "anti-inflammatory effect of coadministration with sodium hyaluronate": "additive or synergistic effects"},
      {"molecule": "CN1C(C(=O)Nc2ccccn2)=C(O)c2ccccc2S1(=O)=O", "note": "[piroxicam]", "anti-inflammatory effect of coadministration with sodium hyaluronate": "weak"}
    ]}
  ]
}
